Source: ChEMBL document CHEMBL1201862, “PubChem BioAssay data set” (2004)
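Assay format: 96-well plates, 48-hour exposure. GI50 marks 50% less growth.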 Activity calls are given as the source filed them. Rule as the data show it: active = GI50 up to about 1.1 µM and inactive = higher.

Legend:
Test in all cases: NCI tumour cell line growth inhibition, 48 h
[1] = tested on: 786-0
[2] = tested on: DMS-114
[3] = tested on: HOP-18
[4] = tested on: KM-20L2
[5] = tested on: M19-MEL
[6] = tested on: SNB-78
[7] = tested on: XF498
[8] = tested on: RXF 631
[9] = tested on: LXFL 529

Measured: GI50

Cc1ccc(Nc2nc3ccccc3nc2NS(=O)(=O)c2ccc(N)cc2)cc1
inactive: [1] 82.4 µM

COc1nc(SC)nc2c1cnn2C1OC(C(O)CO)C(OC)C1O (centres undefined)
inactive: [2] > 80 µM | [3] > 100 µM | [4] > 85.9 µM | [5] > 75.5 µM | [6] > 85.9 µM | [7] > 100 µM

COc1c(Br)cc(CC(N)=O)c(O)c1Br
inactive: [2] > 100 µM | [3] > 100 µM | [4] > 100 µM | [5] > 100 µM | [8] > 100 µM | [6] > 100 µM | [7] > 100 µM

CN(C)C(=S)/N=c1\ssc(=S)n1C
inactive: [1] > 100 µM | [2] > 100 µM | [3] > 100 µM | [4] > 100 µM | [9] > 100 µM | [5] > 100 µM | [8] > 100 µM | [6] > 100 µM | [7] > 100 µM

COc1ccc(/C(C#N)=C/c2ccc(OC)c(OC)c2)cc1
inactive: [1] > 100 µM

c1ccc(NN/N=N/c2ccc(-c3nc4ccccc4[nH]3)cc2)cc1
inactive: [1] 28.2 µM

COc1cc(O)cc2oc(-c3ccc(O)cc3)cc(=O)c12
inactive: [1] 68.4 µM

Nc1n[c-](N)[n+](=O)c(N)c1NCO
inactive: [1] > 100 µM

CC(=O)OCC1OC(n2c3c(c(-c4ccco4)c(C#N)c2=S)CCC3)C(OC(C)=O)C(OC(C)=O)C1OC(C)=O (centres undefined)
inactive: [1] 49.7 µM

CN(C)CCNC(=O)c1cccc2ccc(-c3ccc(F)cc3)nc12
inactive: [2] 5.48 µM | [3] 17.4 µM | [4] 4.22 µM | [5] 4.33 µM | [6] 8.85 µM | [7] 2.94 µM

Cc1cnc(/N=c2\sc(C)cn2-c2ncc(C)s2)s1
inactive: [1] > 100 µM

CC1(C)CC(=O)C2=C(C1)OC1=C(CC(C)(C)CC1=O)C2c1ccccc1[N+](=O)[O-] (centres undefined)
inactive: [1] > 100 µM

COc1cc(C2C(C(=O)O)=C(CO)Oc3cc4c(cc32)OCO4)cc(OC)c1O (centres undefined)
inactive: [2] > 100 µM | [3] > 100 µM | [4] > 100 µM | [6] > 100 µM

O=c1[nH]c(=O)n(C2CC(O)C(CO)O2)cc1C(OCC(F)(F)F)OCC(F)(F)F (centres undefined)
inactive: [1] > 100 µM | [2] > 100 µM | [4] > 100 µM | [9] > 100 µM | [5] > 100 µM | [8] > 100 µM | [6] > 100 µM | [7] > 100 µM

N#C/N=N/c1cc(Cl)c(/N=N/C#N)cc1Cl
inactive: [2] > 100 µM | [4] > 100 µM | [9] 28.3 µM | [5] > 100 µM | [6] > 100 µM | [7] > 100 µM

C[N+](C)([O-])CCOc1cc2c(c3ccccc13)-c1ccccc1C2=O
inactive: [2] 7.83 µM | [3] 29.1 µM | [4] 20.1 µM | [5] 15.1 µM | [6] 19.8 µM | [7] 16.4 µM

O=[N+]([O-])c1ccc2[nH]c3c(-c4ccccc4)nccc3c2c1
inactive: [2] 18.9 µM | [3] 18 µM | [4] 27.6 µM | [5] 25.9 µM | [6] 31 µM | [7] 29.4 µM

O=C(NN1C(=O)CS(=O)(=O)C1c1ccc(Cl)c(Cl)c1)c1ccncc1 (centres undefined)
inactive: [2] 61.2 µM | [3] > 100 µM | [4] > 91.4 µM | [5] > 100 µM | [6] > 93.1 µM | [7] > 100 µM

O=C(O)C12CCCCC1CCCC2 (centres undefined)
inactive: [2] > 100 µM | [3] > 100 µM | [4] > 100 µM | [9] > 100 µM | [5] > 100 µM | [7] > 100 µM

O=C(c1ccccc1Br)C(F)(F)F
inactive: [1] > 100 µM
